Data from US20130310256A1, “HERBICIDAL COMPOSITIONS COMPRISING 4-AMINO-3-CHLORO-5-FLUORO-6-(4-CHLORO-2-FLUORO-3-METHOXYPHENYL) PYRIDINE-2-CARBOXYLIC ACID OR A DERIVATIVE THEREOF AND VLCFA AND LIPID SYNTHESIS INHIBITING HERBICIDES” (DOW AGROSCIENCES LLC, priority 2008, published 2013).
Where “and” joins values, the source holds several entries; their conditions need not be identical. Equal entries are not always repeated. Where two headings read alike, the source gives them in different places.

Key:
LEFCH = test: Example II: in-water applied weed control, transplanted paddy rice, greenhouse; type: in vivo, Leptochloa chinensis (L.) Nees (Chinese sprangletop)
Method: Weed seeds or nutlets of the desired test plant species were planted in puddled soil (mud) prepared by mixing a shredded, non-sterilized mineral soil (50.5 percent silt, 25.5 percent clay, and 24 percent sand, with a pH of about 7.6 and an organic matter content of about 2.9 percent) and water at a 1:1 volumetric ratio. The prepared mud was dispensed in 365 mL aliquots into 16-ounce (oz.) non-perforated plastic pots with a surface area of 86.59 square centimeters (cm^2) leaving a headspace of 3 centimeters (cm) in each pot. Mud was allowed to dry overnight prior to planting or transplanting. Rice seeds were planted in Sun Gro MetroMix® 306 planting mixture, which typically has a pH of 6.0 to 6.8 and an organic matter content of about 30 percent, in plastic plug trays. Seedlings at the second or third leaf stage of growth were transplanted into 840 mL of mud contained in 32-oz. non-perforated plastic pots with a surface area of 86.59 cm^2 4 days prior to herbicide application. The paddy was created by filling the headspace of the pots with 2.5 to 3 cm of water. When required to ensure good germination and healthy plants, a fungicide treatment and/or other chemical or physical treatment was applied. The plants were grown for 4-22 days in a greenhouse with an approximate 14 hr photoperiod which was maintained at about 29′C during the day and 26° C. during the night. Nutrients were added as Osmocote® (19:6:12, N:P:K+ minor nutrients) at 2 g per 16-oz. pot and 4 g per 32-oz. pot. Water was added on a regular basis to maintain the paddy flood, and supplemental lighting was provided with overhead metal halide 1000-Watt lamps as necessary. The plants were employed for testing when they reached the first through fourth true leaf stage.
Treatments consisted of the acid or esters of 4-amino-3-chloro-5-fluoro-6-(4-chloro-2-fluoro-3-methoxy-phenyl)pyridine-2-carboxylic acid (compound A) each formulated as an SC (suspension concentrate) and various herbicidal components alone and in combination. Forms of compound A were applied on an acid equivalent basis.
The herbicidal components were applied on an active ingredient basis and included very long chain fatty acid (VLCFA) synthesis-inhibiting and fatty acid/lipid synthesis-inhibiting herbicides acetochlor (technical grade material), acetochlor+dichlormid formulateded as Topnotch®, pretilachlor (technical grade material), butachlor formulated as Butachlor EC, fentrazamide formulated as Fentrazamide EC, thiobencarb formulated as Bolero® 8EC, cafenstrole formulated as Himeadow® WP or Lapost® Flowable, benfuresate formulated as Full Shot®, anilofos (technical grade material), mefenacet (technical grade material), molinate (technical grade material), and thenylchlor (technical grade material).
Treatment requirements for each compound or herbicidal component were calculated based upon the rates being tested, the concentration of active ingredient or acid equivalent in the formulation, an application volume of 2 mL per component per pot, and an application area of 86.59 cm^2 per pot.
For formulated compounds, a measured amount was placed in an individual 100 or 200 mL glass vial and was dissolved in a volume of 1.25% (v/v) Agri-Dex® crop oil concentrate to obtain application solutions.
For technical grade compounds, a weighed amount was placed in an individual 100 to 200 mL glass vial and was dissolved in a volume of acetone to obtain concentrated stock solutions. […] The concentrated stock solutions obtained were diluted with an equivalent volume of an aqueous mixture containing 2.5% (v/v) crop oil concentrate so that the final application solutions contained 1.25% (v/v) crop oil concentrate.
Applications were made by injecting with a pipetter appropriate amounts of the application solutions, individually and sequentially, into the aqueous layer of the paddy. Control plants were treated in the same manner with the solvent blank. […]

ECHOR = test: as above; type: in vivo, Echinochloa oryzoides (Ard.) Fritsch (early watergrass)
Procedure, shortened: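 Transplanted rice and weeds at the first to fourth true leaf stage in flooded mud pots (pH ~7.6 soil), greenhouse ~29/26 °C, 14 h photoperiod. Compound A (acid equivalent) and VLCFA/lipid-synthesis herbicides (active ingredient) injected into the paddy water in 1.25% crop oil concentrate. Injury scored visually at ~3 weeks versus untreated, 0–100%.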

## CCS(=O)(=O)Oc1ccc2c(c1)C(C)(C)CO2 [Benfuresate, 2,3-dihydro-3,3-dimethyl-5-benzofuranyl ethanesulfonate]
LEFCH; 75 gai/ha (Full Slot), 22 DAA
  Visual Weed Control LEFCH Obs: 0%
LEFCH; 150 gai/ha (Full Slot), 22 DAA
  Visual Weed Control LEFCH Obs: 0%
ECHOR; Echinochloa oryzoides, 528 h, 150 gai/ha (Full Slot), 22 DAA, read-out: Visual Weed Control ECHOR Obs
  pest or weed control at 150 g/ha: 0%

## CCN(CC)C(=O)n1cnc(S(=O)(=O)c2c(C)cc(C)cc2C)n1 [Cafenstrole, N,N-diethyl-3-[(2,4,6-trimethylphenyl)sulfonyl]-1H-1,2,4-triazole-1-carboxamide]
LEFCH; 210 gai/ha (Lapost Flowable), 21 DAA
  Visual Weed Control LEFCH Obs: 38%
ECHOR; Echinochloa oryzoides, 504 h, 52.5 gai/ha (Himeadow WP), 21 DAA, read-out: Visual Weed Control ECHOR Obs
  pest or weed control at 52.5 g/ha: 10%
ECHOR; Echinochloa oryzoides, 504 h, 52.5 gai/ha (Lapost Flowable), 21 DAA, read-out: Visual Weed Control ECHOR Obs
  pest or weed control at 52.5 g/ha: 70%
ECHOR; Echinochloa oryzoides, 504 h, 105 gai/ha (Himeadow WP), 21 DAA, read-out: Visual Weed Control ECHOR Obs
  pest or weed control at 105 g/ha: 30%

## COc1c(Cl)ccc(-c2nc(C(=O)O)c(Cl)c(N)c2F)c1F [Compound A Acid, 4-amino-3-chloro-6-(4-chloro-2-fluoro-3-methoxyphenyl)-5-fluoropyridine-2-carboxylic acid]
LEFCH; 10.6 gae/ha, 22 DAA
  Visual Weed Control LEFCH Obs: 20%
LEFCH; 21.2 gae/ha, 22 DAA
  Visual Weed Control LEFCH Obs: 40%
LEFCH; 35 gae/ha, 21 DAA
  Visual Weed Control LEFCH Obs: 5%
LEFCH; 42.4 gae/ha, 22 DAA
  Visual Weed Control LEFCH Obs: 60%
LEFCH; 70 gae/ha, 21 DAA
  Visual Weed Control LEFCH Obs: 23%
ECHOR; 8.75 gae/ha
  Visual Weed Control (%) - 20 DAA ECHOR Obs: 10%
ECHOR; 17.5 gae/ha
  Visual Weed Control (%) - 20 DAA ECHOR Obs: 25%
  Visual Weed Control (%) - 21 DAA ECHOR Obs: 25% and 20%
ECHOR; 35 gae/ha
  Visual Weed Control (%) - 20 DAA ECHOR Obs: 25%
  Visual Weed Control (%) - 21 DAA ECHOR Obs: 30% and 35%
ECHOR; Echinochloa oryzoides, 504 h, 35 gae/ha, 21 DAA, read-out: Visual Weed Control ECHOR Obs
  pest or weed control at 35 g/ha: 30%

## COc1c(Cl)ccc(-c2nc(C(=O)OCc3ccccc3)c(Cl)c(N)c2F)c1F [Compound A Benzyl Ester, benzyl ester of 4-amino-3-chloro-5-fluoro-6-(4-chloro-2-fluoro-3-methoxy-phenyl)pyridine-2-carboxylic acid]
LEFCH; 4.38 gae/ha, 22 DAA
  Visual Weed Control LEFCH Obs: 20%
LEFCH; 8 gae/ha, 19 DAA
  Visual Weed Control LEFCH Obs: 0%
LEFCH; 16 gae/ha, 19 DAA
  Visual Weed Control LEFCH Obs: 0%
LEFCH; 32 gae/ha, 19 DAA
  Visual Weed Control LEFCH Obs: 15%
LEFCH; 35 gae/ha, 21 DAA
  Visual Weed Control LEFCH Obs: 50%
LEFCH; 70 gae/ha, 21 DAA
  Visual Weed Control LEFCH Obs: 50%
ECHOR; 4.38 gae/ha
  Visual Weed Control (%) - 20 DAA ECHOR Obs: 10%
ECHOR; 8.75 gae/ha
  Visual Weed Control (%) - 20 DAA ECHOR Obs: 20%
  Visual Weed Control (%) - 21 DAA ECHOR Obs: 15% and 25%
ECHOR; 17.5 gae/ha
  Visual Weed Control (%) - 20 DAA ECHOR Obs: 50%
ECHOR; Echinochloa oryzoides, 480 h, 4.38 gae/ha, 20 DAA, read-out: Visual Weed Control ECHOR Obs
  pest or weed control at 4.38 g/ha: 10%
ECHOR; Echinochloa oryzoides, 480 h, 8.75 gae/ha, 20 DAA, read-out: Visual Weed Control ECHOR Obs
  pest or weed control at 8.75 g/ha: 20%
ECHOR; Echinochloa oryzoides, 480 h, 17.5 gae/ha, 20 DAA, read-out: Visual Weed Control ECHOR Obs
  pest or weed control at 17.5 g/ha: 50%
ECHOR; Echinochloa oryzoides, 504 h, 8.75 gae/ha, 21 DAA, read-out: Visual Weed Control ECHOR Obs
  pest or weed control at 8.75 g/ha: 15%
ECHOR; Echinochloa oryzoides, 528 h, 8.75 gae/ha, 22 DAA, read-out: Visual Weed Control ECHOR Obs
  pest or weed control at 8.75 g/ha: 35%
ECHOR; Echinochloa oryzoides, 528 h, 17.5 gae/ha, 22 DAA, read-out: Visual Weed Control ECHOR Obs
  pest or weed control at 17.5 g/ha: 30%

## CCCOCCN(C(=O)CCl)c1c(CC)cccc1CC [Pretilachlor, 2-chloro-N-(2,6-diethylphenyl)-N-(2-propoxyethyl)acetamide]
ECHOR; 75 gai/ha
  Visual Weed Control (%) - 20 DAA ECHOR Obs: 0%
ECHOR; 150 gai/ha
  Visual Weed Control (%) - 20 DAA ECHOR Obs: 30%
